# Test results: patent US20260207569A1, “LPA1 ANTAGONISTS FOR TREATING INTERSTITIAL LUNG DISEASE” (Bristol-Myers Squibb Company, priority 2022, published 2026)
# Legend:
# [1] = Phase 1 Part C MAD, blood pressure, healthy Japanese participants; type: in vivo, human
# Description: The study was performed in 3 parts in 112 healthy male and female participants, including 24 Japanese participants. Female participants were to be not of childbearing potential. The present study was designed to evaluate the safety and tolerability, PK, and exploratory PD of an oral suspension of Compound A. Parts A and B (Cohort B1 only) enrolled healthy participants and was conducted at a site in The Netherlands and Part B (Cohort B2 to B5) enrolled healthy non-Japanese participants and was conducted at a site in the United Kingdom (UK). Part C enrolled healthy Japanese participants and was conducted at the same site in the UK.
# Part C was a MAD study in 3 sequential dose escalation cohorts (30 mg BID, 60 mg BID, and 90 mg BID) of 8 healthy Japanese participants (6 active+2 placebo) each. Eligible participants in Cohorts C1 to C3 received study drug (Compound A or placebo) administered orally for 14 days.
# Physical examinations, vital sign measurements (including orthostasis testing in Cohort A6, Cohort B3 to B5, and C1 to C3 at selected time points), 12-lead electrocardiogram (ECG), and clinical laboratory evaluations were performed at selected times throughout the study. In addition, Holter monitoring was performed for the first 24 hours post dose on Day 1 in Part A (not in FE/pH cohort), and also for the first 24 hours post dose on Day 1 and Day 14 in Parts B and C. Participants were closely monitored for adverse events (AEs). Blood samples were collected for up to 14 days (follow-up visit) after (last) study drug administration for PK analysis. In addition, blood and urine were collected for exploratory biomarker assessments and for biobanking of samples for potential analyses. Urine was collected for potential PK analysis for up to 96 hours after a single dose of Compound A or placebo was administered in the SAD part, and for up to 24 hours after the first (morning) dose of study drug on Day 1 and for up to 24 hours after the last (morning) dose of study drug on Day 14 in the MAD parts.
# participants with PPF = test: Phase 2 PPF cohort efficacy: rate of FVC decline (% predicted) / FVC to Week 26; type: in vivo, human; details: for Mean observed change from baseline in ppFVC and FVC vs placebo: to week 26
# Description: A total of 123 participants with PPF were randomized. Participants (age ≥21 years) were randomized (1:1:1) to receive 30 mg or 60 mg Compound A or PBO twice daily for 26 weeks. […] Immunosuppressive medications (mycophenolate mofetil, mycophenolic acid, azathioprine and/or tacrolimus) were permitted only if dosing is stable for ≥6 months prior to screening. If receiving antifibrotic agents pirfenidone or nintedanib, patients had to receive a stable dosage for ≥3 months prior to screening and during the screening period; if not receiving pirfenidone or nintedanib, patients had to be naive to both drugs or not have received either 4 weeks prior to Day 1. A total of 47 (38.2%) subjects were receiving antifibrotic treatment (with or without immunosuppression therapy). Of those subjects, 34 were being treated with nintedanib and 13 with pirfenidone. Participants were stratified by usual interstitial pneumonia (UIP) pattern (presence versus absence) and background therapy (antifibrotics +/−ILD-targeted immunosuppression versus ILD-targeted immunosuppression alone versus none). UIP pattern was present in 52% of subjects and unclassifiable ILD was he most common disease categorization.
# The study was not powered to detect statistical significance (no formal testing). No target effect size was defined in the study design. There were two estimand approaches for analysis: • Treatment Policy: Effect of treatment with dose reduction as part of treatment regimen. • While-On Treatment: Effect of treatment without dose reduction.
# The main efficacy endpoint, rate of FVC decline (in % of predicted) from baseline to wk-26 in the PPF cohort, was estimated using a linear mixed-effects model utilizing all FVC timepoints. It was analyzed under a primary estimand (utilizing all data, treatment policy strategy), and under supplementary estimand (utilizing all data up to the point of dose reduction, while-on-treatment strategy). Analysis was performed in the overall population as well as in sub-groups by 1) background anti-fibrotic treatment or not 2) UIP radiographic pattern (presence or not). The mean baseline ppFVC was 66.7% for the PPF cohort.
smiles,measurement,setting,value
"CCCN(C)C(=O)OCc1c(-c2ccc(O[C@H]3CCC[C@H](C(=O)O)C3)c(C)n2)nnn1C [Compound A, (1S,3S)-3-((2-methyl-6-(1-methyl-5-(((methyl(propyl)carbamoyl)-oxy)methyl)-1H-1,2,3-triazol-4-yl)pyridin-3-yl)oxy)cyclohexane-1-carboxylic acid]",Maximum of mean (±SD) reduction in SBP from baseline,[1]; Japanese MAD 30 mg BID (C1),15.0 ± 6.84 mmHg
same,Time of maximum mean SBP reduction,[1]; Japanese MAD 30 mg BID (C1),1-4 Day-h
same,Time of maximum mean DBP reduction,[1]; Japanese MAD 90 mg BID (C2),1-6 Day-h
same,Time of maximum mean SBP reduction,[1]; Japanese MAD 90 mg BID (C2),1-6 Day-h
same,Reductions in mean BP,[1]; Japanese MAD cohorts,no clear Compound A dose-dependent BP reduction trend
same,Treatment differences by UIP pattern,participants with PPF; PPF cohort,treatment differences were seen in the PPF cohort independent of UIP pattern presence or absence
same,Treatment differences in rates of change in ppFVC by background antifibrotic use,participants with PPF; PPF cohort,consistent with or without background antifibrotic use
same,Dose response of efficacy,"participants with PPF; PPF cohort, 30 mg and 60 mg BID",Clear dose response
same,Consistency of efficacy across sub-groups,"participants with PPF; PPF cohort, background antifibrotics, UIP pattern",Efficacy consistent in all sub-groups
same,"Rate of decline in FVC (% Predicted), slope","participants with PPF; PPF, 30 mg BID, UIP absent, supplementary estimand",−2.24 % Predicted
same,"Rate of decline in FVC (% Predicted), slope","participants with PPF; PPF, 30 mg BID, UIP present, primary estimand",−3.07 % Predicted
same,"Rate of decline in FVC (% Predicted), slope","participants with PPF; PPF, 30 mg BID, not receiving antifibrotic treatment, supplementary estimand",−2.83 % Predicted
same,"Rate of decline in FVC (% Predicted), slope","participants with PPF; PPF, 30 mg BID, overall population, primary estimand (treatment policy), 26 weeks",−2.7 % Predicted
same,"Rate of decline in FVC (% Predicted), slope","participants with PPF; PPF, 30 mg BID, receiving antifibrotic treatment, supplementary estimand",−1.8 % Predicted
same,Mean observed change from baseline in ppFVC and FVC vs placebo,"participants with PPF; PPF, 30 mg BID",shows more significant improvement after week 20
same,"Rate of decline in FVC (% Predicted), slope","participants with PPF; PPF, 60 mg BID, UIP absent, supplementary estimand",−0.7 % Predicted
same,"Rate of decline in FVC (% Predicted), slope","participants with PPF; PPF, 60 mg BID, UIP present, primary estimand",−1.46 % Predicted
same,"Rate of decline in FVC (% Predicted), slope","participants with PPF; PPF, 60 mg BID, not receiving antifibrotic treatment, supplementary estimand",−1.56 % Predicted
same,"Rate of decline in FVC (% Predicted), slope","participants with PPF; PPF, 60 mg BID, overall population, supplementary estimand (while on treatment), 26 weeks",−1.3 % Predicted
same,"Rate of decline in FVC (% Predicted), slope","participants with PPF; PPF, 60 mg BID, receiving antifibrotic treatment, supplementary estimand",−1.1 % Predicted
same,Mean observed change from baseline in ppFVC and FVC vs placebo,"participants with PPF; PPF, 60 mg BID",maintains the improvement over placebo through the end of week 26
same,"Slope difference, 60 mg − placebo","participants with PPF; PPF, UIP absent, supplementary estimand",3.8 % Predicted
same,"Slope difference, 30 mg − placebo","participants with PPF; PPF, UIP present, primary estimand",0.88 % Predicted
same,"Slope difference (S.E.), 60 mg − placebo","participants with PPF; PPF, overall population, primary estimand (treatment policy)",3.2 % Predicted
same,"Slope difference (S.E.), 60 mg − placebo","participants with PPF; PPF, overall population, supplementary estimand (while on treatment)",2.9 % Predicted
